Test results taken from patent US11344025B2, “Organ preconditioning formulation with mitochondrial elongating agents” (MUSC FOUNDATION FOR RESEARCH DEVELOPMENT, priority 2017, dated 2022).
Entries after “also recorded” stand apart in the source; their conditions may differ. Like-named read-outs stand apart in the source and are kept apart here.

How the values were obtained:
[1] = Systemic administration of Mdivi-1, adverse effects; assay type: in vivo
Description: The studies proposed will delineate the role of mito morphology alterations in cardiac-Tx. They will also determine how donor BD impacts IM, and identify an optimum drug delivery strategy for reducing acute post-Tx injury through mito shape manipulation. The opposing roles of mito fission and fusion regulate mito morphology and function. A number of key proteins have been identified which control this process (DRP-1, mito fission protein-1 (Fis-1) and mito fission factor (mff), Mfn1/2, and OPA-1). Given the importance of these proteins for the maintenance of cellular respiration, genetic deletion is most often fatal. However, C57Bl/6 homozygous mito fission factor (Mff)-deficient (Mff^gt−/−) mice are available, as are pharmacological promoters of fusion, M1 and Mdivi-1. […] Using these tools, the inventors will dissect the role of fission and fusion in IRI and rejection in the context of organ Tx. The inventors propose three sub Aims. In SA 2.1, the inventors will determine the impact of mito fission inhibition, and thus fusion promotion, through comparing the effects of IRI and AR of recipients receiving hearts from C57Bl/6 wildtype (wt) or C57Bl/6 homozygous mito fission factor (Mff)-deficient (Mff^gt−/−) donors. In SA 2.2 the inventors will explore the therapeutic potential of donor heart pre-treatment with M1, Mdivi-1, and a combination of both. […]

focal cardiac ischemia = conditions: non-transplant setting, previous studies, cited from earlier work
MCECs = test: mitoSOX staining of mito ROS after CIT; assay type: cell-based, mouse; conditions: CIT-induced ROS
Description: Hypoxic cold storage and reperfusion injury culture model: A modified cell culture model that simulates the IR process of organ Tx will be used. […] Cells will then be sealed in a hypoxic chamber filled with nitrogen at 4° C. After CIT, cells will undergo simulated reperfusion by removing the preservation solution and reintroducing fresh DMEM containing 10% FBS.

[2] = tested on: sensitized allogeneic CD8+ T-cells cocultured with MCECs; test: EC/T cell co-culture: cytokine release by alloreactive CD8 T cells; assay type: cell-based, mouse; conditions: cold stored (CIT) and treated ECs
Description: EC/T cell co-culture: Using the genetically modified and pharmacological inhibitors the inventors will dissect the impact of EC mito morphology manipulation on T cell activation/co-stimulation. These studies will focus on MCECs given the availability of reagents and ability to generate alloreactive CD8 T cells as previously published.
Allogenic CD8 T cells will be generated. In brief, C57Bl/6 mice will be inoculated with MCECs i.p. and 3 weeks later spleens will be harvested and CD8 T cells isolated using bead isolation techniques. These MCEC alloreactive CD8 T cells will then be co-cultured with MCECs in the normoxic and CIT models.

COc1cc(-n2c(S)nc3ccccc3c2=O)c(Cl)cc1Cl [Mdivi-1]
adverse side effects [1]: no detectable adverse side effects | cardioprotection from focal IRI (focal cardiac ischemia): provides protection from IRI; also recorded: promote cardioprotective effects | cardioprotection from focal IRI (focal cardiac ischemia; listed as Mdivi1): protect both myocardium and microvasculature

CC(=O)N[C@@H](CS)C(=O)O [NAC, N-Acetyl Cysteine]
mito ROS (mitoSox) (MCECs): completely abrogated ROS | Granzyme B (GrB) production by co-cultured alloreactive CD8 T cells [2]: has no impact; also recorded: no significant effect; also recorded: do not decrease Granzyme-B to the extent of DRP-KD | IFN-gamma production by co-cultured alloreactive CD8 T cells [2]: has no impact; also recorded: no significant effect
